In patent US8524765B2, “Compounds that modulate intracellular calcium” (Calcimedica, Inc., priority 2007, dated 2013):
Where two headings read alike, the source gives them in different places.

Assays:
RBL-2H3 cells = experiment: Degranulation (β-hexosaminidase release) assay; type: cell-based; settings: Rattus norvegicus
Description: To assess degranulation and cytokine release, RBL-2H3 cells were plated and stimulated with 20 nM thapsigargin/20 nM TPA for 20 hr in the presence or absence of compound of Formula (I) or Formula (II). Media was collected and assayed for the release of β-hexosaminidase or for the release of the inflammatory mediator cytokine TNF-α. The β-hexosaminidase enzymatic assay was performed by adding 200 μL 1 mM p-nitrophenyl-acetyl-glucosamide substrate (Sigma #N9376) in 0.05M Na Citrate (pH 4.5) to 50 μL of conditioned medium, incubating for 60 min at 37° C., then adding 500 μL 0.05M Na carbonate, 0.05M Na bicarbonate pH 10.5, mixing thoroughly, and reading the absorbance at 405 nm in a BioRad plate reader. The TNF-α release assay was performed using the Rat Tumor Necrosis Factor-a Ultrasensitive ELISA Kit from BioSource.

rat T cells = experiment: IL-2 secretion in rat T cells; type: cell-based; settings: T-cell, FIG. 5, read-out: IC50 for inhibition of IL-2 secretion
[1] = Skin transplant rejection in Lewis rats; type: in vivo, rat; settings: FIG. 18
Jurkat T cells = experiment: IL-2 secretion from Jurkat T cells (PHA+TPA, ELISA); type: cell-based
Description: To measure IL-2 secretion from Jurkat T cells, cells were plated in a 96 well plate at a density of 1.5×10^5 cells/well. Cells were stimulated with 2.5 μg/ml PHA lectin+80 nM TPA for 20 hr in the presence or absence of a compound of Formula (I) or Formula (II). The medium was then collected and analyzed for IL-2 levels by ELISA (BioSource) according to the manufacturer's protocols.

[2] = system: store-operated calcium entry in RBL-2H3 cells; experiment: Fluorescence (FLUO-4/FLIPR384) store-operated calcium entry screening assay; type: cell-based, rat
Description: Fluorescence-based assays were used for screening the compounds described herein, such as compounds of Formula (I) and Formula (II), which modulate intracellular calcium.
RBL-2H3 cells plated in 384-well plates were loaded for 45 min with FLUO-4-AM (2 μM final concentration) in HBSS. Cells were washed and placed in a nominally Ca^2+- and Mg^2+-free Hanks solution. One minute later, a test agent or vehicle was added. After a 15 minute incubation period, 1 μM thapsigargin (Tg) was added to inhibit the ER Ca^2+ pump and discharge intracellular Ca^2+ stores. Fifteen minutes after addition of Tg, store-operated calcium entry was initiated by adding external Ca^2+ to a final concentration of 1.8 mM and the cells monitored for a further 10-15 minutes. Calcium levels were monitored throughout the assay using a FLIPR^384 (Molecular Devices fluorimetric imaging plate reader for high throughput screening).
A similar screening assay procedure was used with HEK293 and RBL-2H3 cells.
The kinetic data from the FLIPR^384 were analyzed and then stored in a relational database (ActivityBase; IDBS). Ten quantitative parameters were calculated that define various aspects of the store-operated calcium entry response. These parameters are as follows:
Up slope: linear regression of the increase in RFU from 2 to 30 sec after addition of Ca^2+.
Combinations of these parameters were used to characterize the compounds of Formula (I). Compounds were retested under identical conditions to confirm their activity. Compounds with confirmed activity were then analyzed for concentration-dependent effects, and subsequently, those compounds displaying concentration-dependent effects were categorized as compounds that modulate intracellular calcium.

SOCE in rat T cells = experiment: SOCE in rat T cells; type: cell-based; settings: T-cell, FIG. 5, read-out: IC50 for inhibition of SOCE

IC50 (RBL-2H3 cells; RBL-2H3, 2 hour TG/TPA induction in HBSS+1% serum, 10 minute pretreatment, FIG. 4, read-out: IC50 for inhibition of degranulation, presence of serum): 1 to 3 µM
IC50 (RBL-2H3 cells; RBL-2H3, 2 hour TG/TPA induction in HBSS, 10 minute pretreatment, FIG. 4, read-out: apparent IC50 for inhibition of degranulation, absence of serum): < 0.3 µM
IC50 (RBL-2H3 cells; RBL-2H3 cells induced with TG/TPA, FIG. 3, read-out: IC50 for inhibition of degranulation): 2.6 µM
IC50 (rat T cells): ~2.5 µM
IC50 (Jurkat T cells; Homo sapiens, Jurkat T cells stimulated with PHA+TPA, FIG. 7, read-out: IC50 for inhibition of IL-2 release): ~0.5 µM
IC50 ([2]; Rattus norvegicus, Up slope parameter, RBL-2H3 cells): 2.2 µM
IC50 (SOCE in rat T cells): ~2.4 µM
Structure (SMILES): O=C(Nc1scc(-c2ccc(Br)cc2)c1C(=O)O)c1ccc(F)cc1 [Compound 1, 2-(4-fluorobenzamido)-4-(4-bromophenyl)thiophene-3-carboxylic acid]
rejection of skin transplants [1]: delayed rejection
effect of combination with cyclosporin A on IL-2 secretion (Jurkat T cells; Jurkat T cells stimulated with PHA/TPA, Compound 1 together with cyclosporin A, FIG. 10): additive effects
inhibition of the initial kinetics of the CRAC channel response ([2]; RBL-2H3 cells, FIG. 2): concentration-dependent inhibition
inhibition at 10 µM ([2]; Rattus norvegicus, RBL-2H3, 10 μM, cell line not stated): > 70%
